Reference: the NIST ThermoML archive (doi:10.1021/je060411g)

Assay: molar heat capacity at constant pressure
Conditions: 101.33 kPa

CCC(C)(C)O [2-methylbutan-2-ol]
Conditions | molar heat capacity at constant pressure [J/K/mol]
165.36 K, Crystal 2 | 122.85
166.24 K, Crystal 2 | 123.44
167.44 K, Crystal 2 | 123.55
167.45 K, Crystal 2 | 123.69
168.29 K, Crystal 2 | 126.14
169.53 K, Crystal 2 | 124.34
169.57 K, Crystal 2 | 124.68
170.33 K, Crystal 2 | 128.89
171.63 K, Crystal 2 | 125.44
171.7 K, Crystal 2 | 125.8
172.35 K, Crystal 2 | 131.56
173.74 K, Crystal 2 | 126.82
173.85 K, Crystal 2 | 127.21
174.35 K, Crystal 2 | 134.03
175.89 K, Crystal 2 | 128.48
176.02 K, Crystal 2 | 128.7
176.33 K, Crystal 2 | 136.74
178.07 K, Crystal 2 | 130.33
178.22 K, Crystal 2 | 130.54
178.3 K, Crystal 2 | 139.33
180.24 K, Crystal 2 | 141.75
180.29 K, Crystal 2 | 131.97
180.44 K, Crystal 2 | 132.57
182.18 K, Crystal 2 | 143.44
182.53 K, Crystal 2 | 133.47
182.64 K, Crystal 2 | 134.58
184.1 K, Crystal 2 | 145.88
184.82 K, Crystal 2 | 137.28
186.01 K, Crystal 2 | 147.63
186.94 K, Crystal 2 | 141.12
187.9 K, Crystal 2 | 148.63
189 K, Crystal 2 | 143.98
189.78 K, Crystal 2 | 150.78
191 K, Crystal 2 | 146.05
191.66 K, Crystal 2 | 151.3
192.96 K, Crystal 2 | 149.37
193.52 K, Crystal 2 | 152.71
194.88 K, Crystal 2 | 150.75
195.38 K, Crystal 2 | 154.88
196.78 K, Crystal 2 | 151.94
197.23 K, Crystal 2 | 154.68
198.65 K, Crystal 2 | 154.12
199.07 K, Crystal 2 | 156.86
199.87 K, Crystal 2 | 155.64
200.5 K, Crystal 2 | 154.04
200.9 K, Crystal 2 | 157.7
201.17 K, Crystal 2 | 157.49
202.35 K, Crystal 2 | 156.44
202.62 K, Crystal 2 | 157.61
204.18 K, Crystal 2 | 158.51
204.44 K, Crystal 2 | 159.27
206 K, Crystal 2 | 158.34
206.25 K, Crystal 2 | 159.14
207.81 K, Crystal 2 | 159.84
208.06 K, Crystal 2 | 160.6
209.61 K, Crystal 2 | 159.89
209.85 K, Crystal 2 | 161.82
211.4 K, Crystal 2 | 158.72
211.64 K, Crystal 2 | 164.89
217.83 K, Crystal 1 | 141.33
218.04 K, Crystal 1 | 144.15
219.66 K, Crystal 1 | 143.15
219.86 K, Crystal 1 | 142.88
221.49 K, Crystal 1 | 143.51
221.68 K, Crystal 1 | 143.74
223.31 K, Crystal 1 | 144.13
223.5 K, Crystal 1 | 144.13
225.12 K, Crystal 1 | 144.75
225.31 K, Crystal 1 | 144.76
226.93 K, Crystal 1 | 145.48
227.12 K, Crystal 1 | 145.55
228.73 K, Crystal 1 | 146.48
228.92 K, Crystal 1 | 146.48
230.52 K, Crystal 1 | 147.54
230.71 K, Crystal 1 | 147.5
232.31 K, Crystal 1 | 148.37
232.49 K, Crystal 1 | 148.43
234.08 K, Crystal 1 | 149.45
234.27 K, Crystal 1 | 149.58
235.86 K, Crystal 1 | 150.05
236.04 K, Crystal 1 | 150.15
237.63 K, Crystal 1 | 151.12
237.81 K, Crystal 1 | 151.14
239.39 K, Crystal 1 | 152.5
239.57 K, Crystal 1 | 152.39
240.92 K, Crystal 1 | 153.28
241.15 K, Crystal 1 | 153.19
242.15 K, Crystal 1 | 153.94
242.9 K, Crystal 1 | 154.53
243.54 K, Crystal 1 | 154.92
244.65 K, Crystal 1 | 155.65
245.28 K, Crystal 1 | 156.32
246.39 K, Crystal 1 | 157.17
247.02 K, Crystal 1 | 157.69
248.12 K, Crystal 1 | 159.18
249.84 K, Crystal 1 | 160.99
251.56 K, Crystal 1 | 163.84
253.26 K, Crystal 1 | 168.27
